Test results as given in patent US7176352B1, “Transgenic Lemnaceae” (Yeda Research and Development Company Ltd., priority 1997, dated 2007).

How the values were obtained:
[1] = test system: Calli of Spirodela punctata var. Helgm; experiment: Regeneration of plants from Spirodela calli; format: in vivo; settings: B-5 medium, 1% sucrose, scored after 2 weeks; for Regenerating calli No.: 30 calli
Method: Spirodela calli were maintained on B-5 medium (Table 6 below) supplemented with 1.0% sucrose, 3 mg/l 2IP and 10 mg/l 2,4-D. For regeneration, calli were transferred to B-5 medium supplemented with 1,0% sucrose and 2 mg/l 2IP. Fully regenerated S. punctata plants were efficiently obtained within 1–2 weeks. Spirodela calli and the regenerated plants, were grown at 26° C. under continuous fluorescent light (30 μE m^−2s^−1).
Calli of Spirodela punctata var. Helgm, maintained for 7 to 16 weeks on B-5 medium supplemented with 1% sucrose, […] 2IP and 10 mg/l 2,4-D, were transferred to B-5 medium supplemented with 1% sucrose and different concentrations of 2IP. Regenerated plants were visually scored after 2 weeks.

[2] = test system: Spirodela punctata plants; experiment: GUS expression of transformed plants grown on kanamycin or BASTA supplemented SP medium; format: in vivo; settings: supplement 2 μg/ml in SP medium, 2 to 5 weeks
Method: The method involved wounding plants, co-cultivating them with 5×10^8 bacteria ml^−1 (A. tumefaciens strain EHA105 harboring Ti plasmid pME504) for 30 min. and vacuum infiltration (30 mbar, for 5–10 min). Transformed Spirodela punctata plants were grown in SP medium (Table 2) supplemented with 2 μg/ml kanamycin for 2 to 5 weeks. Six green plants resistant to kanamycin, and a sampling of bleached ones, were assayed for GUS expression.

| Structure (SMILES) | Regenerating calli (%) ([1]; 2 IP 2 mg/l) | Regenerating calli No. ([1]; 2 IP 2 mg/l) | Regenerating calli (%) ([1]; 2 IP 10 mg/l) | Regenerating calli No. ([1]; 2 IP 10 mg/l) | GUS expression (% fronds) Bleached plants ([2]; bleached plants) [% fronds] | GUS expression (% fronds) Green plants ([2]; green resistant plants) [% fronds] |
| --- | --- | --- | --- | --- | --- | --- |
| CC(C)=CCNc1ncnc2nc[nH]c12 [2 IP] | 73 | 22 | 0 | 0 | – | – |
| NC[C@H]1O[C@H](O[C@H]2[C@H](O)[C@@H](O[C@H]3O[C@H](CO)[C@@H](O)[C@H](N)[C@H]3O)[C@H](N)C[C@@H]2N)[C@H](O)[C@@H](O)[C@@H]1O [Kanamycin] | – | – | – | – | 0 | 83 |
